Measured values taken from patent publication US20040258633A1, “Composition containing monoterpenes for topical oral administration” (Gisol Ltd., priority 2000, published 2004).

Test: Example 5 salt solution mouth wash, periodontal index (PI)
Type: in vivo
Conditions: 10% salt solution mouth wash, 30 seconds, twice a day, for a week; point of origin = 1
Protocol: Using solutions having a concentration of 10% the salts presented in table 3 below were applied after tooth brushing, in the form of a mouth wash. The mouth wash was applied for 30 seconds, twice a day, for a week. The following results were measured according to the periodontal index (PI): […]

For `[Cl-].[K+]` [Kcl], the “PI (periodontal index)” value was 1.47.

With `[Br-].[Br-].[Mg+2]` [MgBr2] the “PI (periodontal index)” value was 1.58.

With `[Cl-].[Na+]` [NaCl] the “PI (periodontal index)” value was 1.32.
